Key:
[1] = molecular target: α1β2(N265C,L285C)γ2 GABAAR (UniProt P18508+P47870+P62813, C260A/C282A/C312A/C319A/C341A/L309C/N289C); test: GABA-induced currents, two-electrode voltage clamp in Xenopus laevis oocytes; assay type: cell-based, rat α1 and γ2s, human β2
[2] = molecular target: β2(L285C)-containing GABAARs (UniProt P18508+P47870+P62813, C260A/C282A/C312A/C319A/C341A/L309C); test: as above; assay type: cell-based, rat α1 and γ2s, human β2
[3] = molecular target: α1β2(N265C,C288)γ2 GABAAR (UniProt P18508+P47870+P62813, C260A/C282A/C319A/C341A/N289C); test: as above; assay type: cell-based, rat α1 and γ2s, human β2
[4] = molecular target: α1(L232C)β2γ2 GABAAR (UniProt P18508+P47870+P62813, C260A/C282A/C312A/C319A/C341A/L258C); test: as above; assay type: cell-based, rat α1 and γ2s, human β2
[5] = molecular target: α1(L232C)β2(M286C)γ2 GABAAR (UniProt P18508+P47870+P62813, C260A/C282A/C312A/C319A/C341A/L258C/M310C); test: as above; assay type: cell-based, rat α1 and γ2s, human β2
[6] = molecular target: α1β2(M286C)γ2 GABAAR (UniProt P18508+P47870+P62813, C260A/C282A/C312A/C319A/C341A/M310C); test: as above; assay type: cell-based, rat α1 and γ2s, human β2
[7] = molecular target: α1(Q229C)β2γ2 GABAAR (UniProt P18508+P47870+P62813, C260A/C282A/C312A/C319A/C341A/Q255C); test: as above; assay type: cell-based, rat α1 and γ2s, human β2; conditions: Butanol (33 mM) modulation of EC10 GABA; after versus before BMTS labeling
[8] = molecular target: α1β2(F289C)γ2 GABAAR (UniProt P18508+P47870+P62813, C260A/C282A/C312A/C319A/C341A/F313C); test: as above; assay type: cell-based, rat α1 and γ2s, human β2
[9] = molecular target: α1β2(T225C,L285C)γ2 GABAAR (UniProt P18508+P47870+P62813, C260A/C282A/C312A/C319A/C341A/L309C/T249C); test: as above; assay type: cell-based, rat α1 and γ2s, human β2
[10] = molecular target: β2(N265C)-containing GABAARs (UniProt P18508+P47870+P62813, C260A/C282A/C312A/C319A/C341A/N289C); test: as above; assay type: cell-based, rat α1 and γ2s, human β2
[11] = molecular target: α1β2γ2 Cys-less GABAAR [α1(C234A,C293A)β2(C288A)γ2(C244A,C303A)] (UniProt P18508+P47870+P62813, C260A/C282A/C312A/C319A/C341A); test: as above; assay type: cell-based, rat α1 and γ2s, human β2; conditions: for Modulation of the Cys-less receptor compared with WT: Cys-less versus wild-type α1β2γ2
[12] = test system: mutated alcohol-sensitive GLIC; conditions: inter-subunit binding; ref Howard et al. 2011; cited from earlier work
[13] = test system: wild-type GLIC; conditions: intra-subunit binding; ref Weng et al. 2010; cited from earlier work
[14] = molecular target: β2C288-containing GABAARs (UniProt P18508+P47870+P62813, C260A/C282A/C319A/C341A); test: GABA-induced currents, two-electrode voltage clamp in Xenopus laevis oocytes; assay type: cell-based, rat α1 and γ2s, human β2; conditions: EC10 GABA; BMTS 0.5 mM co-applied with maximal GABA
[15] = molecular target: α1β2(T225C)γ2 GABAAR (UniProt P18508+P47870+P62813, C260A/C282A/C312A/C319A/C341A/T249C); test: as above; assay type: cell-based, rat α1 and γ2s, human β2; conditions: EC10 GABA; BMTS 0.5 mM co-applied with maximal GABA
[16] = test system: bovine GABAAR; conditions: ref Li et al. 2010; cited from earlier work
[17] = test system: recombinant α1β3γ2 GABAARs; conditions: in the presence of GABA; ref Chiara et al. 2013; cited from earlier work
[18] = molecular target: α1(L232C)β2(F289C)γ2 GABAAR (UniProt P18508+P47870+P62813, C260A/C282A/C312A/C319A/C341A/F313C/L258C); test: GABA-induced currents, two-electrode voltage clamp in Xenopus laevis oocytes; assay type: cell-based, rat α1 and γ2s, human β2; conditions: change vs initial response, compared with Cys-less; 100 μM GABA; DTT 2 mM 2 min
[19] = molecular target: α1β2(N265C,F289C)γ2 GABAAR (UniProt P18508+P47870+P62813, C260A/C282A/C312A/C319A/C341A/F313C/N289C); test: as above; assay type: cell-based, rat α1 and γ2s, human β2; conditions: change vs initial response, compared with Cys-less; EC50 GABA; DTT 2 mM 2 min
[20] = molecular target: α1β2(T225C,C288)γ2 GABAAR (UniProt P18508+P47870+P62813, C260A/C282A/C319A/C341A/T249C); test: as above; assay type: cell-based, rat α1 and γ2s, human β2; conditions: change vs initial response, compared with Cys-less; EC50 GABA; DTT 2 mM 2 min
[21] = molecular target: α1β2(T225C,N265C)γ2 GABAAR (UniProt P18508+P47870+P62813, C260A/C282A/C312A/C319A/C341A/N289C/T249C); test: as above; assay type: cell-based, rat α1 and γ2s, human β2; conditions: change vs initial response, compared with Cys-less; 1 mM GABA; DTT 2 mM 2 min
[22] = molecular target: α1(Q229C)β2(M286C)γ2 GABAAR (UniProt P18508+P47870+P62813, C260A/C282A/C312A/C319A/C341A/M310C/Q255C); test: as above; assay type: cell-based, rat α1 and γ2s, human β2; conditions: change vs initial response, compared with Cys-less; EC50 GABA; DTT 2 mM 2 min
[23] = molecular target: α1β2(N265C,M286C)γ2 GABAAR (UniProt P18508+P47870+P62813, C260A/C282A/C312A/C319A/C341A/M310C/N289C); test: as above; assay type: cell-based, rat α1 and γ2s, human β2; conditions: change vs initial response, compared with Cys-less; EC50 GABA; DTT 2 mM 2 min
[24] = molecular target: α1(Q229C)β2(N265C)γ2 GABAAR (UniProt P18508+P47870+P62813, C260A/C282A/C312A/C319A/C341A/N289C/Q255C); test: as above; assay type: cell-based, rat α1 and γ2s, human β2; conditions: change vs initial response, compared with Cys-less; EC50 GABA; DTT 2 mM 2 min
[25] = Butanol modulation of EC10 GABA, 11 and 33 mM, after Cu^++:Phen versus after DTT
[26] = Butanol (33 mM) modulation of EC10 GABA, after versus before BMTS labeling
[27] = single cysteine mutant, no treatment
[28] = EC10 GABA, BMTS 0.5 mM co-applied with maximal GABA
[29] = Isoflurane 0.3 and 0.9 mM on EC10 GABA, after Cu^++:Phen versus after DTT
[30] = Isoflurane 0.3 mM on EC10 GABA, after versus before BMTS labeling
[31] = change vs initial response, compared with Cys-less, EC50 GABA, DTT 2 mM 2 min

Chain of α1β2(T225C,L285C)γ2 GABAAR (P62813 28-455 C260A/C319A): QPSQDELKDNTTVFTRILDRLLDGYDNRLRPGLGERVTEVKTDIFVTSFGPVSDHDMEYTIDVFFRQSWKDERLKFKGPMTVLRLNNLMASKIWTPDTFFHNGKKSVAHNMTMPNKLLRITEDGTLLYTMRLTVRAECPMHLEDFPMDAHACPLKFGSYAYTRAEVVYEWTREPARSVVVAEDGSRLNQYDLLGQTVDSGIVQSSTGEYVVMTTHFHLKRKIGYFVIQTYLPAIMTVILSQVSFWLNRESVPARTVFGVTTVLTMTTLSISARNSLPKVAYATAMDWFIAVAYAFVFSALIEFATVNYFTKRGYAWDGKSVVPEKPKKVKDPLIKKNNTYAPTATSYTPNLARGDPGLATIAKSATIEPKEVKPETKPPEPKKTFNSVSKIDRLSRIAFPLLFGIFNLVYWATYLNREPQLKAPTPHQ
Chain of α1β2(T225C,L285C)γ2 GABAAR (P47870 25-474 isoform P47870-1 T249C/L309C/C312A limits assumed): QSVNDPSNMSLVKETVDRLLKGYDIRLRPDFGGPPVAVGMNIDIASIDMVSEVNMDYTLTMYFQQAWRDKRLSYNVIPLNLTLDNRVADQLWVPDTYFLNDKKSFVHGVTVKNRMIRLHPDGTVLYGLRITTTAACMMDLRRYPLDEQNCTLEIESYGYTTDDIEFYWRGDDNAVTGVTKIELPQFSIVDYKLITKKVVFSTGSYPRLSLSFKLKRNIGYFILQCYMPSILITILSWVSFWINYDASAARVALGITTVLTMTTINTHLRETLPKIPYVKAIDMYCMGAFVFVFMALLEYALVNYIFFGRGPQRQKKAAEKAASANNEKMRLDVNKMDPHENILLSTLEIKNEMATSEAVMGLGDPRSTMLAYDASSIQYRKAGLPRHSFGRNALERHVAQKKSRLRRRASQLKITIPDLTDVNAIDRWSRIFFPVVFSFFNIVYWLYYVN
Chain of α1β2(T225C,L285C)γ2 GABAAR (P18508 39-466 C282A/C341A): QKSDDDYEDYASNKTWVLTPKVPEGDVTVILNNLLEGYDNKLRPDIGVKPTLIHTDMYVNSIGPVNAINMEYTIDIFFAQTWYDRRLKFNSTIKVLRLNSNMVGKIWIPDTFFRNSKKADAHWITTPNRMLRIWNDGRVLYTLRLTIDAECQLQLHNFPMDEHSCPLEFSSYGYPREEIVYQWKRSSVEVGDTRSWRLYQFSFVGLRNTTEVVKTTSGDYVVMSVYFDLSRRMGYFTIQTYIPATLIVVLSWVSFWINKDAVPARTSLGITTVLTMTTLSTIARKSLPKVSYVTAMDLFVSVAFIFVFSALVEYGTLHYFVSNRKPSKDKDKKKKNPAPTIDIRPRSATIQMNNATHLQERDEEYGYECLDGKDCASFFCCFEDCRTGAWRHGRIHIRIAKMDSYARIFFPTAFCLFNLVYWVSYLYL
Chain of β2(N265C)-containing GABAARs (P62813 28-455 C260A/C319A): as the sequence (P62813 28-455 C260A/C319A) above
Chain of β2(N265C)-containing GABAARs (P47870 25-474 isoform P47870-1 N289C/C312A limits assumed): as the sequence (P47870 25-474 isoform P47870-1 T249C/L309C/C312A limits assumed) above, with C225T, N265C, C285L counted along it
Chain of β2(N265C)-containing GABAARs (P18508 39-466 C282A/C341A): as the sequence (P18508 39-466 C282A/C341A) above
Chain of α1β2(F289C)γ2 GABAAR (P62813 28-455 C260A/C319A): as the sequence (P62813 28-455 C260A/C319A) above
Chain of α1β2(F289C)γ2 GABAAR (P47870 25-474 isoform P47870-1 C312A/F313C limits assumed): as the sequence (P47870 25-474 isoform P47870-1 T249C/L309C/C312A limits assumed) above, with C225T, C285L, F289C counted along it
Chain of α1β2(F289C)γ2 GABAAR (P18508 39-466 C282A/C341A): as the sequence (P18508 39-466 C282A/C341A) above

For CCCCO [Butanol, butanol], the “Butanol effect After crosslink” value [1, 25] was “Decrease”, the “Butanol effect after BMTS labeling” value [2, 26] was “No change” and the “Butanol potentiation of GABA responses compared with the Cys-less receptor” value [2, 27] was “decreased”. The “Butanol effect After crosslink” value [3, 25] was “Decrease”, the “Butanol effect after BMTS labeling” value [4, 26] was “No change” and the “Butanol potentiation of GABA responses compared with the Cys-less receptor” value [4, 27] was “decreased”. The “Butanol effect After crosslink” value [5, 25] was “No change”, the “Butanol effect after BMTS labeling” value [6, 26] was “Decrease” and the “Butanol potentiation of GABA responses compared with the Cys-less receptor” value [6, 27] was “decreased”. The “Butanol effect after BMTS labeling” value [7] was “No change”, the “Butanol potentiation of GABA responses compared with the Cys-less receptor” value [8, 27] was “decreased” and the “Butanol effect After crosslink” value [9, 25] was “Decrease”. For the same compound, the “Change in the butanol potentiation after oxidation” value ([9]; Butanol on EC10 GABA, after Cu^++:Phen versus after DTT) was −51%, the “Butanol effect after BMTS labeling” value [10, 26] was “Decrease” and the “Butanol potentiation of GABA responses compared with the Cys-less receptor” value [10, 27] was “decreased”. The “Butanol effect after BMTS labeling” value [11, 26] was “No change/ Small decrease” and the “Butanol effect After crosslink” value [11, 25] was “No change”.
For CCO [ethanol], the “Effect on channel function” value [12] is given as “potentiates” and the “Modulation of the Cys-less receptor compared with WT” value [11] is given as “essentially the same as WT”.
For FC(F)OC(F)C(F)(F)F (stereo not drawn) [desflurane], the “Effect on channel function” value [13] is given as “inhibits”.
With CCCCSS(C)(=O)=O [BMTS, butyl methanethiosulfonate] the “GABA responses after BMTS + GABA” value [4, 28] was “Increase”, the “GABA responses after BMTS + GABA” value [14] was “No change” and the “GABA responses after BMTS + GABA” value [6, 28] was “Increase”. For the same compound, the “GABA responses after BMTS + GABA” value [15] was “No net change” and the “GABA responses after BMTS + GABA” value [11, 28] was “No change”.
In the case of CCCCCCCCO [octanol], the “Block of etomidate analog photolabeling” value [16] is given as “neither octanol nor ethanol could block” and the Block of photolabeling [17] is given as “blocked”.
For [Zn] [zinc], the “Modulation of the Cys-less receptor compared with WT” value [11] was “essentially the same as WT”.
In the case of FC(F)OC(Cl)C(F)(F)F (stereo not drawn) [Isoflurane], the “Block of etomidate analog photolabeling” value [16] is listed as “isoflurane could”, the “Isoflurane effect after oxidation (crosslink)” value [5, 29] is listed as “no changes” and the “Isoflurane potentiation after BMTS labeling” value [6, 30] is listed as “decreased”. For the same compound, the “Isoflurane effect after BMTS labeling” value ([8]; EC10 GABA, after versus before BMTS treatment, data not shown) was “switched from very small, and even inhibitory effects, to potentiation”, the “Isoflurane potentiation of GABA responses compared with the Cys-less receptor” value [8, 27] was “decreased” and the “Isoflurane potentiation after oxidation (crosslink)” value [9, 29] was “decrease”. For the same compound, the “Isoflurane potentiation after BMTS labeling” value [10, 30] was “decreased”.
For O[C@@H](CS)[C@@H](O)CS (racemic) [DTT, dithiothreitol], the “GABA responses After DTT” value [1, 31] was “No change”, the “GABA responses After DTT” value [18] was “Increase” and the “GABA responses After DTT” value [19] was “Increase”. For the same compound, the “GABA responses After DTT” value [3, 31] was “No change”, the “GABA responses After DTT” value [5, 31] was “No change” and the “GABA responses After DTT” value [9, 31] was “No change”. The “GABA responses After DTT” value [20] was “Increase”, the “GABA responses After DTT” value [21] was “Increase” and the “GABA responses After DTT” value ([11]; change vs initial response, EC50 GABA, DTT 2 mM 2 min) was “No change”. For the same compound, the “GABA responses After DTT” value [22] was “Increase”, the “GABA responses After DTT” value [23] was “Decrease” and the “GABA responses After DTT” value [24] was “Decrease”.
In the case of CC(C)c1cccc(C(C)C)c1O [propofol], the “Effect on channel function” value [13] is given as “inhibits”.

Source: article PMC4186771 (Journal of neurochemistry, 2013)
